Test results taken from article PMC12064818, “A general assay platform to study protein pharmacology using ligand-dependent structural dynamics” (Nature Communications, 2025).
Where a name gives a salt, the structure may show the parent alone. Read-outs that look alike come from different tables or passages of the source.

Assays:
[1] = test system: PKA; settings: cited from earlier work
[2] = target: FLuc-N-HiBiT (firefly luciferase) (Photinus pyralis, UniProt P08659, form not given/L550V); assay: SDR assay, FLuc-N-HiBiT; settings: ATP-independent pyrazolo pyrimidine (clade P)
Sequence of FLuc-N-HiBiT (firefly luciferase) (P08659 2-550 L550V, form open): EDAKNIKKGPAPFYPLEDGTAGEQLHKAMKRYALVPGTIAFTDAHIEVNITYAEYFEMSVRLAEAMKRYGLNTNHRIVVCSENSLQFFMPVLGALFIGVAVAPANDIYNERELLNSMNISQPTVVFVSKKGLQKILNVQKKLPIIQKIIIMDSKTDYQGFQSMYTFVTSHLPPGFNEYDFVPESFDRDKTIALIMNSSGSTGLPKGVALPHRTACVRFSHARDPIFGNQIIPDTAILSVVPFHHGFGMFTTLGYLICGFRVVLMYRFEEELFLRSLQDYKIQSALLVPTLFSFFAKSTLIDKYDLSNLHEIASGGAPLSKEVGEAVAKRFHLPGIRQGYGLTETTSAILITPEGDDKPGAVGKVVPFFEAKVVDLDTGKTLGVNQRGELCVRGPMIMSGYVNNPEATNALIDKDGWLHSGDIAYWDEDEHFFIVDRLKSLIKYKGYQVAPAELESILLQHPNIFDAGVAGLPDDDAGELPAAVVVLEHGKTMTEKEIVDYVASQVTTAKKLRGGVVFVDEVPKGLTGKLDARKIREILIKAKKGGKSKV

[3] = target: PKA-N-HiBiT (Homo sapiens, UniProt P17612); assay: SDR assay, PKA-N-HiBiT
[4] = target: T1, ABL1-N-HiBiT kinase domain (Homo sapiens, UniProt P00519); assay: SDR assay, ABL1-N-HiBiT
T1 sequence (P00519 233-500): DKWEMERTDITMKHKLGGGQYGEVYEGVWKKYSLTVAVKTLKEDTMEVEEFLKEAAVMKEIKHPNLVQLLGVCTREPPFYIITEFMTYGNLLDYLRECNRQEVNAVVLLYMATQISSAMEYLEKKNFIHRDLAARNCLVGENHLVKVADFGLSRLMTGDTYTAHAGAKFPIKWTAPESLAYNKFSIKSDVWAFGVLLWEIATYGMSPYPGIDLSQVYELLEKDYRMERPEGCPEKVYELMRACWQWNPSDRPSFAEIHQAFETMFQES

[5] = annotation yes/no for kinase library compound, source not given
[6] = PKA-N-HiBiT qHTS, SDR assay, average maximal response
[7] = read-out: PKA SDR Ave SDR50, PKA-N-HiBiT qHTS, SDR assay, average
[8] = ABL1-N-HiBiT qHTS, average maximal SDR response
[9] = heatmap data, 128 kinase inhibitors
[10] = read-out: SDR Ave SDR50, ABL1-N-HiBiT qHTS, average, unit inferred
[11] = ABL1-N-HiBiT qHTS, SDR assay, average maximal response

| Molecule | SDR Ave Max Response [3, 6] | SDR Ave Max Response [4, 8] | ABL1 SDR pSDR50 [4, 9] | Annotated PKA activity [1, 5] | also measured |
| --- | --- | --- | --- | --- | --- |
| O=c1cc(N2CCOCC2)nc2c3ccccc3ccn12 [Compound 401] | – | – | – | no | pSDR50 (clade P) [2]: 4.78; % Activity (max response) ([2]; SDR): 29.04%; Emax ([3]; read-out: SDR Ave Max Response): 0.18%; EC50 ([4]; ABL1 SDR pSDR50, ABL1, SDR, heatmap data, 128 kinase inhibitors): 7.41 µM; EC50 ([4]; SDR Ave SDR50, ABL1-N-HiBiT qHTS, average, unit inferred): 7.6 µM; Emax ([4]; read-out: SDR Ave Max Response): 22.9% |
| Cc1[nH]c2ccccc2c1C1=C(NCCc2ccc(F)cc2)C(=O)N(C)C1=O [IM-12] | -30.07 | -12.41 | – | no | EC50 [3]: 32.4 µM; EC50 [3, 7]: 41.4 µM |
| O=C(NCCCNc1nc(Nc2ccc(N3CCOCC3)cc2)ncc1C1CC1)C1CCC1 [MRT-68601 HCl] | 1.65 | – | – | no | SDR Ave Max Response [4, 11]: -7.81 |
| Cc1n[nH]c2ncc(C(=O)N3CCC[C@H]3c3ccc(Cl)cc3)cc12 [MSC2530818] | 40.05 | – | – | no | EC50 [3]: 14.1 µM; EC50 [3, 7]: 14.5 µM; SDR Ave Max Response [4, 11]: 4.30 |
| Cc1ccc(C(=O)Nc2ccc(Oc3cc4cnn(C)c4cc3-c3cn[nH]c3)c(F)c2)c(=O)n1-c1ccc(F)cc1 [Merestinib] | 8.78 | 22.76 | – | no | – |
| FC(F)(F)c1ccc(/C=C/c2nc(COc3ccc(CCCCn4ccnn4)cc3)co2)cc1 [Mubritinib] | – | – | – | – | Annotated PKA activity [1]: no; SDR Ave Max Response [3]: 6.74; SDR Ave Max Response [4]: 1.25 |
| CNC(=O)c1ccccc1Nc1nc(Nc2ccc(N3CCOCC3)cc2OC)ncc1Cl [NVP-TAE226] | 11.43 | 60.77 | – | no | – |
| COc1ccc(-n2c(SCC#N)nc3sc4c(c3c2=O)CCCC4)cc1 [Necrostatin-5] | 1.51 | – | – | no | SDR Ave Max Response [4]: -3.84 |
| O=C(Nc1ccc(OC(F)(F)F)cc1)c1sccc1NCc1ccnc2ccccc12 [OSI-930] | 9.10 | 17.46 | 5.04 | no | EC50 [4, 10]: 9.38 µM |
| O=C(NOCC(O)CO)c1cc(Br)c(F)c(F)c1Nc1ccc(I)cc1F (stereo not shown) [PD-318088] | -21.34 | -2.26 | – | no | PKA SDR Ave pSDR50 ([3]; PKA-N-HiBiT qHTS, SDR assay, average): 4.33; EC50 [3, 7]: 62 µM |
| Cc1ccc(NC(=O)N2CCN(c3nc(N)nc4sc(-c5cccnc5)nc34)CC2)cc1 [PI4KIII beta inhibitor 3] | 3.67 | 18.89 | – | no | SDR Ave pSDR50 ([4]; ABL1-N-HiBiT qHTS, average): 4.83; EC50 [4, 10]: 14.9 µM |
| C=CC(=O)N1CCC(Oc2cc3c(Nc4ccc(Cl)c(Cl)c4F)ncnc3cc2OC)CC1 [Poziotinib] | 8.47 | 56.26 | 4.03 | no | – |
| CO[C@H]1/C=C/O[C@@]2(C)Oc3c(C)c(O)c4c(O)c(c(/C=N\N5CCN(C6CCCC6)CC5)c(O)c4c3C2=O)NC(=O)C(C)=C/C=C/[C@H](C)[C@H](O)[C@@H](C)[C@@H](O)[C@@H](C)[C@H](OC(C)=O)[C@@H]1C [Rifapentin] | -45.77 | -34.67 | 4.28 | no | EC50 [3, 7]: 17.1 µM |
| Cc1cc(F)ccc1-c1nc(NCCNC(=N)NC#N)nc2c1ccc(=O)n2-c1c(F)cccc1F [SB 706504] | 3.70 | 3.05 | – | no | – |
| COc1cc(NC(=O)c2cccc(-n3cc(NC(=O)Nc4cccc(C)c4)cn3)c2)cc(OC)c1OC [SR 3576] | 1.20 | 6.18 | – | no | – |
| O=C(Nc1cc(C(F)(F)F)ccc1N1CCCCC1)c1ccncc1 [SRPIN340] | 1.60 | -4.31 | – | no | – |
| N#Cc1ccc2ncnc(NCCc3ccccc3)c2c1 [Senexin A] | -4.85 | -0.36 | – | no | – |
| Cn1sc(=O)n(Cc2ccccc2)c1=O [TDZD 8] | 1.44 | -3.85 | – | no | – |
| O=C1CCC(N2C(=O)c3ccccc3C2=O)C(=O)N1 (stereo not shown) [Thalidomide] | -13.01 | -2.59 | – | no | – |
| COC(=O)Nc1ccc(-c2nc(N3CCOCC3)c3cnn(C4CCN(C(=O)OC)CC4)c3n2)cc1 [WYE-354] | 4.88 | 1.70 | – | no | – |
| CCNC(=O)Nc1ccc(-c2nc3c(c(N4CCOC[C@@H]4C)n2)CCN(c2ncccn2)C3)cc1 [mTOR-IN-1] | 1.84 | 10.90 | – | no | – |
| CaMKII-IN-1 | -11.95 | -23.39 | 4.38 | no | – |
| Indirubin | 5.53 | – | – | no | SDR Ave Max Response [4]: 2.52 |
| Mps1-IN-3 | 14.72 | 66.03 | 4.80 | no | – |
| PHT-427 | -6.93 | 10.06 | – | no | – |
| PLX-4720 | 5.33 | 37.18 | 4.63 | no | EC50 [4, 10]: 24.5 µM |
| STF-083010 | 1.50 | -0.63 | – | no | – |
| UK-371804 | 6.35 | – | 4.69 | no | SDR Ave Max Response [4, 11]: -28.31; EC50 ([4]; read-out: SDR Ave SDR50, ABL1-N-HiBiT qHTS, SDR assay, average): 26.5 µM |

Now from value to molecule, other results behind:

| SDR Ave Max Response [3, 6] | SDR Ave Max Response [4, 8] | ABL1 SDR pSDR50 [4, 9] | Molecule | Annotated PKA activity [1, 5] | also measured |
| --- | --- | --- | --- | --- | --- |
| -4.54 | -23.55 | – | C[C@@H]1CN(CC(=O)Nc2ccc3c(c2)Cc2cccc(-c4cc(=O)cc(N5CCOCC5)o4)c2S3)C[C@H](C)O1 [KU-60019] | no | – |
| -2.90 | -19.98 | 5.21 | CN1CCN(CCCNc2ncc(Cl)c(-c3cc4c(C(=O)NC5CC5)cccc4s3)n2)CC1 [LY-2409881] | no | EC50 [4, 10]: 7.98 µM |
| -13.81 | 59.57 | 5.27 | O=C(c1cccc(Cl)c1F)N1CCN(Cc2cccc(Nc3nccs3)n2)CC1 [MK-8745] | no | EC50 [4, 10]: 5.74 µM |
| 35.28 | 52.23 | 4.46 | N#Cc1cccc(-c2c[nH]c3ncnc(N4CCOCC4)c23)c1 [PF-06447475] | no | EC50 [3]: 19.5 µM; EC50 [3, 7]: 20.8 µM; EC50 [4, 10]: 35.5 µM |
| 3.01 | 9.81 | – | C=CC(=O)Nc1cccc(Oc2nc(Nc3ccc(N4CCN(C)CC4)cc3OC)ncc2Cl)c1 [WZ4002] | no | – |
